Source: patent US20260092061A1, “COMPOUNDS FOR TARGETED PROTEIN DEGRADATION” (Amphista Therapeutics Limited, priority 2022, published 2026)

How the values were obtained:
BRD9 [1] = molecular target: T1, BRD9 (Homo sapiens, UniProt Q9H8M2); assay: BRD9 degradation, HiBiT-BRD9 KI HEK293 (LgBiT) cells, NanoGlo Lytic Endpoint assay (Assay Protocol 1); format: cell-based; details: BRD9 degradation; for Dmax at 1 µM / Dmax: HEK293; for Dmax at 1 µM: 1 μM compound at 6 h of treatment, read-out: Assay 1 Dmax; for Dmax: read-out: Dmax
T1 sequence (Q9H8M2 1-597): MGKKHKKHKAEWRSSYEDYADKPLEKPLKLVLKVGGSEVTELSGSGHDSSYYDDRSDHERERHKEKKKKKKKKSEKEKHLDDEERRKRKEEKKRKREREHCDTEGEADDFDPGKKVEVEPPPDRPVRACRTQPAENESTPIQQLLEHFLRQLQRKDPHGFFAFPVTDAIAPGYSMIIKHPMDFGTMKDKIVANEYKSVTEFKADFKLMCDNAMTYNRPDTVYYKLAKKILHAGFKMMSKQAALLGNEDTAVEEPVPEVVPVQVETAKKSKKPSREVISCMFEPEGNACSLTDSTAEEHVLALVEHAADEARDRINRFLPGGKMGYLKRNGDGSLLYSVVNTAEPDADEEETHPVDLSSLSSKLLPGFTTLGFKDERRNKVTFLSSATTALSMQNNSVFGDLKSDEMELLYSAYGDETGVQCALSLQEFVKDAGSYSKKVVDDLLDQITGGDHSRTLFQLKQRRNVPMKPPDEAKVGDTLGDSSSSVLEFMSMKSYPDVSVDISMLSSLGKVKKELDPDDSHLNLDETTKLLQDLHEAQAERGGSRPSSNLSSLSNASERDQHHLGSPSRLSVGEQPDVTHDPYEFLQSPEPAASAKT
Summary of the method: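 HiBiT-tagged BRD9 knock-in HEK293 (LgBiT) cells exposed to compounds for 6 h at 37 °C, 5% CO2. Residual BRD9 measured by HiBiT lytic luminescence. % BRD9 remaining normalised to DMSO-treated cells (high) and no-cell wells (low).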

BRD9 [2] = molecular target: T1, BRD9; assay: Degradation of BRD9 (IF), immunofluorescence in MV4-11 cells, 24 hours (Assay Protocol 2); format: cell-based; design: A suspension of MV4-11 cells (ATCC CRL-9591) was prepared; host or cells: MV4-11
Summary of the method: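 MV4-11 cells treated with compound 24 h at 37° C., then fixed, permeabilised and immunostained for BRD9 (anti-BRD9 E4Q3F, Alexa 647 secondary, Hoechst counterstain). High-content imaging quantified nuclear BRD9 signal; % BRD9 remaining normalised to DMSO and 100 nM CFT-8634 controls.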

[3] = Table 2, Assay Protocol 1, 6 h of treatment, read-out: Assay 1 DC50
[4] = MV4-11, 24 h, Table 2, BRD9 degradation (IF), Assay Protocol 2, MV4-11 cells, read-out: Assay 2 DCmax
[5] = Table 2, BRD9 degradation (IF), Assay Protocol 2, MV4-11 cells, read-out: Assay 2 DC50
[6] = Assay protocol 2, BRD9 degradation, read-out: DC50
[7] = MV4-11, Assay protocol 2, BRD9 degradation, read-out: Dmax
[8] = Assay protocol 1, read-out: DC50

Compound	Dmax at 1 µM (BRD9 [1]; Table 2, Assay Protocol 1) [%]	DC50 (BRD9 [1]; [3]) [nM]	Dmax (BRD9 [2]; [4]) [%]	DC50 (BRD9 [2]; [5]) [nM]	Dmax (BRD9 [1]; Assay protocol 1) [%]	DC50 (BRD9 [2]; [6]) [nM]	Dmax (BRD9 [2]; [7]) [%]	DC50 (BRD9 [1]; [8]) [nM]
COc1cc(-c2cn(C)c(=O)c3cnccc23)cc(OC)c1CN1CC2CCC(C1)N2Cc1cccc2c1CCN(C(=O)/C(C#N)=C/C(C)(C)C)C2C (mixture of isomers) [Compound A48, (E/Z)-2-(5-((3-(2,6-dimethoxy-4-(2-methyl-1-oxo-1,2-dihydro-2,7-naphthyridin-4-yl)benzyl)-3,8-diazabicyclo[3.2.1]octan-8-yl)methyl)-1-methyl-1,2,3,4-tetrahydroisoquinoline-2-carbonyl)-4,4-dimethylpent-2-enenitrile]	> 75	1.25 to 10	40 to 70	< 1.25	–	–	–	–
COc1cc(-c2cn(C)c(=O)c(C)c2C)cc(OC)c1CN1CCN(Cc2cccc3c2CCN(C(=O)/C(C#N)=C/C2(C)COC2)C3C)CC1 (mixture of isomers) [Compound A51, (E/Z)-2-[5-[[4-[[2,6-dimethoxy-4-(1,4,5-trimethyl-6-oxo-3-pyridyl)phenyl]methyl]piperazin-1-yl]methyl]-1-methyl-3,4-dihydro-1H-isoquinoline-2-carbonyl]-3-(3-methyloxetan-3-yl)prop-2-enenitrile]	40 to 70	1.25 to 10	40 to 70	< 1.25	–	–	–	–
COc1cc(-c2cn(C)c(=O)c(C)c2C)cc(OC)c1CN1CCN(Cc2cccc3c2CCN(C(=O)/C(C#N)=C/c2cccc(C(F)(F)F)n2)C3C)CC1 (mixture of isomers) [Compound A53, (E/Z)-2-(5-((4-(2,6-dimethoxy-4-(1,4,5-trimethyl-6-oxo-1,6-dihydropyridin-3-yl)benzyl)piperazin-1-yl)methyl)-1-methyl-1,2,3,4-tetrahydroisoquinoline-2-carbonyl)-3-(6-(trifluoromethyl)pyridin-2-yl)acrylonitrile]	40 to 70	1.25 to 10	40 to 70	–	–	–	–	–
COc1cc(-c2cn(C)c(=O)c3cnccc23)cc(OC)c1CN(C)Cc1ccc2c(c1)CCN(C(=O)/C(C#N)=C/c1cccc(Br)n1)C2C (mixture of isomers) [Compound A66]	40 to 70	< 1.25	> 75	< 1.25	–	–	–	–
COc1cccc(/C=C(\C#N)C(=O)N2CCc3c(CN4CCN(Cc5c(OC)cc(-c6cn(C)c(=O)c(C)c6C)cc5OC)CC4)cccc3C2C)n1 (mixture of isomers) [Compound A67, (E/Z)-2-(5-((4-(2,6-dimethoxy-4-(1,4,5-trimethyl-6-oxo-1,6-dihydropyridin-3-yl)benzyl)piperazin-1-yl)methyl)-1-methyl-1,2,3,4-tetrahydroisoquinoline-2-carbonyl)-3-(6-methoxypyridin-2-yl)acrylonitrile]	40 to 70	1.25 to 10	40 to 70	–	–	–	–	–
COc1cc(-c2cn(C)c(=O)c(C)c2C)cc(OC)c1CN1CC2CC1CN2Cc1cccc2c1CCN(C(=O)/C(C#N)=C/C(C)(C)C)C2C (mixture of isomers) [Compound A70, (E/Z)-2-(5-((5-(2,6-dimethoxy-4-(1,4,5-trimethyl-6-oxo-1,6-dihydropyridin-3-yl)benzyl)-2,5-diazabicyclo[2.2.1]heptan-2-yl)methyl)-1-methyl-1,2,3,4-tetrahydroisoquinoline-2-carbonyl)-4,4-dimethylpent-2-enenitrile]	40 to 70	10 to 25	70 to 75	< 1.25	–	–	–	–
COc1cc(-c2cn(C)c(=O)c3cc(C(=O)NCCOc4ccc5c(c4)CCN(C(=O)/C(C#N)=C/c4nccs4)C5C)sc23)cc(OC)c1CN(C)C (mixture of isomers) [Compound A74]	40 to 70	25 to 300	40 to 70	1.25 to 10	–	–	–	–
COc1cc(-c2cn(C)c(=O)c3cc(C(=O)NCCCCCOc4ccc5c(c4)CCN(C(=O)/C(C#N)=C/c4nccs4)C5C)sc23)cc(OC)c1CN(C)C (mixture of isomers) [Compound A75, (E/Z)—N-(5-((2-(2-cyano-3-(thiazol-2-yl)acryloyl)-1-methyl-1,2,3,4-tetrahydroisoquinolin-6-yl)oxy)pentyl)-7-(4-((dimethylamino)methyl)-3,5-dimethoxyphenyl)-5-methyl-4-oxo-4,5-dihydrothieno[3,2-c]pyridine-2-carboxamide]	40 to 70	25 to 300	> 75	1.25 to 10	–	–	–	–
COc1cc(-c2cn(C)c(=O)c3cc(C(=O)NCCCCCOc4cccc(C5CCCN5C(=O)/C(C#N)=C/c5nccs5)c4)sc23)cc(OC)c1CN(C)C (mixture of isomers) [Compound A76, (E/Z)—N-(5-(3-(1-(2-cyano-3-(thiazol-2-yl)acryloyl)pyrrolidin-2-yl)phenoxy)pentyl)-7-(4-((dimethylamino)methyl)-3,5-dimethoxyphenyl)-5-methyl-4-oxo-4,5-dihydrothieno[3,2-c]pyridine-2-carboxamide]	40 to 70	25 to 300	70 to 75	< 1.25	–	–	–	–
COc1cc(-c2cn(C)c(=O)c(C)c2C)cc(OC)c1CN1CCN(Cc2cccc3c2CCN(C(=O)/C(C#N)=C/C2CC(F)(F)C2)C3C)CC1 (mixture of isomers) [Compound B1, (E/Z)-3-(3,3-difluorocyclobutyl)-2-(5-((4-(2,6-dimethoxy-4-(1,4,5-trimethyl-6-oxo-1,6-dihydropyridin-3-yl)benzyl)piperazin-1-yl)methyl)-1-methyl-1,2,3,4-tetrahydroisoquinoline-2-carbonyl)acrylonitrile]	–	–	–	–	40 to 70	< 1.25	40 to 70	–
COc1cc(-c2cn(C)c(=O)c(C)c2C)cc(OC)c1CN1CCCN(Cc2cccc3c2CCN(C(=O)/C(C#N)=C/c2cccc(Br)n2)C3C)CC1 (mixture of isomers) [Compound B2, (E/Z)-3-(6-bromopyridin-2-yl)-2-(5-((4-(2,6-dimethoxy-4-(1,4,5-trimethyl-6-oxo-1,6-dihydropyridin-3-yl)benzyl)-1,4-diazepan-1-yl)methyl)-1-methyl-1,2,3,4-tetrahydroisoquinoline-2-carbonyl)acrylonitrile]	–	–	–	–	> 75	1.25 to 10	70 to 75	1.25 to 10
COc1cc(-c2cn(C)c(=O)c(C)c2C)cc(OC)c1CN1CC2CCC(C1)N2Cc1cccc2c1CCN(C(=O)/C(C#N)=C/C(C)(C)C)C2C (mixture of isomers) [Compound B3, (E/Z)-2-(5-((3-(2,6-dimethoxy-4-(1,4,5-trimethyl-6-oxo-1,6-dihydropyridin-3-yl)benzyl)-3,8-diazabicyclo[3.2.1]octan-8-yl)methyl)-1-methyl-1,2,3,4-tetrahydroisoquinoline-2-carbonyl)-4,4-dimethylpent-2-enenitrile]	–	–	–	–	> 75	10 to 25	> 75	10 to 25
COc1cc(-c2cn(C)c(=O)c(C)c2C)cc(OC)c1CN1CCN(Cc2cccc3c2CCN(C(=O)/C(C#N)=C/c2cc(C)on2)C3C)CC1 (mixture of isomers) [Compound B4, (E/Z)-2-(5-((4-(2,6-dimethoxy-4-(1,4,5-trimethyl-6-oxo-1,6-dihydropyridin-3-yl)benzyl)piperazin-1-yl)methyl)-1-methyl-1,2,3,4-tetrahydroisoquinoline-2-carbonyl)-3-(5-methylisoxazol-3-yl)acrylonitrile]	–	–	–	–	40 to 70	1.25 to 10	40 to 70	1.25 to 10
COc1cc(-c2cn(C)c(=O)c(C)c2C)cc(OC)c1CN(C)Cc1ccc2c(c1)C(C)N(C(=O)/C(C#N)=C/c1cccc(Br)n1)CC2 (mixture of isomers) [Compound B5, (E/Z)-3-(6-bromopyridin-2-yl)-2-(7-(((2,6-dimethoxy-4-(1,4,5-trimethyl-6-oxo-1,6-dihydropyridin-3-yl)benzyl)(methyl)amino)methyl)-1-methyl-1,2,3,4-tetrahydroisoquinoline-2-carbonyl)acrylonitrile]	–	–	–	–	> 75	< 1.25	> 75	1.25 to 10
